ChEMBL document CHEMBL5724914, “Linking interpersonal differences in gut microbiota composition and drug biotransformation activity” (2024)

Assay: (§1) The drug is tested on WLS-010 corresponding to human gut metagenome with ENA study accession number: PRJEB37062 and ENA sample accession number: ERS12561743 for biotransformation under anaerobic condition. The drug concentrations were measured over 9 timepoints collected between 0 and 24 hours of incubation by liquid-chromatography-coupled mass spectrometry (LC–MS)
Conditions: 2 µM
Note: call rule not given here.

Compound | Bacterial Biotransformation
COc1ccc(C(CN(C)C)C2(O)CCCCC2)cc1 (stereo not given) [VENLAFAXINE] | Compound NOT metabolized
CCOC(=O)C1=C[C@]2(CC)CCCN3CCc4c(n1c1ccccc41)[C@@H]32 [VINPOCETINE] | Compound NOT metabolized
C[C@@H](c1ncncc1F)[C@](O)(Cn1cncn1)c1ccc(F)cc1F [VORICONAZOLE] | Compound metabolized
CCN(C(C)=O)c1cccc(-c2ccnc3c(C#N)cnn23)c1 [ZALEPLON] | Compound metabolized

Conditions: human gut metagenome, 24 h, 2 µM

Compound | Bacterial Biotransformation
COc1ccc(C(CN(C)C)C2(O)CCCCC2)cc1 (stereo not given) [VENLAFAXINE] | Compound NOT metabolized
CCOC(=O)C1=C[C@]2(CC)CCCN3CCc4c(n1c1ccccc41)[C@@H]32 [VINPOCETINE] | Compound metabolized
C[C@@H](c1ncncc1F)[C@](O)(Cn1cncn1)c1ccc(F)cc1F [VORICONAZOLE] | Compound metabolized
CCN(C(C)=O)c1cccc(-c2ccnc3c(C#N)cnn23)c1 [ZALEPLON] | Compound metabolized

Assay: as §1, with “WLS-073” for “WLS-010”, “ERS12561749” for “ERS12561743”
Conditions: 2 µM

Compound | Bacterial Biotransformation
COc1ccc(C(CN(C)C)C2(O)CCCCC2)cc1 (stereo not given) [VENLAFAXINE] | Compound NOT metabolized
CCOC(=O)C1=C[C@]2(CC)CCCN3CCc4c(n1c1ccccc41)[C@@H]32 [VINPOCETINE] | Compound metabolized
C[C@@H](c1ncncc1F)[C@](O)(Cn1cncn1)c1ccc(F)cc1F [VORICONAZOLE] | Compound metabolized
CCN(C(C)=O)c1cccc(-c2ccnc3c(C#N)cnn23)c1 [ZALEPLON] | Compound metabolized

Assay: as §1, with “Z-023” for “WLS-010”, “to” for “to human gut”, “ERS12561822” for “ERS12561743”
Conditions: 2 µM

Compound | Bacterial Biotransformation
COc1ccc(C(CN(C)C)C2(O)CCCCC2)cc1 (stereo not given) [VENLAFAXINE] | Compound NOT metabolized
CCOC(=O)C1=C[C@]2(CC)CCCN3CCc4c(n1c1ccccc41)[C@@H]32 [VINPOCETINE] | Compound metabolized
C[C@@H](c1ncncc1F)[C@](O)(Cn1cncn1)c1ccc(F)cc1F [VORICONAZOLE] | Compound metabolized
CCN(C(C)=O)c1cccc(-c2ccnc3c(C#N)cnn23)c1 [ZALEPLON] | Compound metabolized

Conditions: human gut metagenome, 24 h, 2 µM
Remark: another data set of the same source

Compound | Bacterial Biotransformation
COc1ccc(C(CN(C)C)C2(O)CCCCC2)cc1 (stereo not given) [VENLAFAXINE] | Compound metabolized
CCOC(=O)C1=C[C@]2(CC)CCCN3CCc4c(n1c1ccccc41)[C@@H]32 [VINPOCETINE] | Compound metabolized
C[C@@H](c1ncncc1F)[C@](O)(Cn1cncn1)c1ccc(F)cc1F [VORICONAZOLE] | Compound metabolized
CCN(C(C)=O)c1cccc(-c2ccnc3c(C#N)cnn23)c1 [ZALEPLON] | Compound metabolized

Assay: as §1, with “WLS-350” for “WLS-010”, “ERS12561789” for “ERS12561743”
Conditions: 2 µM

Compound | Bacterial Biotransformation
COc1ccc(C(CN(C)C)C2(O)CCCCC2)cc1 (stereo not given) [VENLAFAXINE] | Compound NOT metabolized
CCOC(=O)C1=C[C@]2(CC)CCCN3CCc4c(n1c1ccccc41)[C@@H]32 [VINPOCETINE] | Compound metabolized
C[C@@H](c1ncncc1F)[C@](O)(Cn1cncn1)c1ccc(F)cc1F [VORICONAZOLE] | Compound metabolized
CCN(C(C)=O)c1cccc(-c2ccnc3c(C#N)cnn23)c1 [ZALEPLON] | Compound metabolized

Assay: as §1, with “Z-013” for “WLS-010”, “rabbit” for “human”, “ERS12561813” for “ERS12561743”
Conditions: 2 µM

Compound | Bacterial Biotransformation
COc1ccc(C(CN(C)C)C2(O)CCCCC2)cc1 (stereo not given) [VENLAFAXINE] | Compound NOT metabolized
CCOC(=O)C1=C[C@]2(CC)CCCN3CCc4c(n1c1ccccc41)[C@@H]32 [VINPOCETINE] | Compound NOT metabolized
C[C@@H](c1ncncc1F)[C@](O)(Cn1cncn1)c1ccc(F)cc1F [VORICONAZOLE] | Compound NOT metabolized
CCN(C(C)=O)c1cccc(-c2ccnc3c(C#N)cnn23)c1 [ZALEPLON] | Compound NOT metabolized

Conditions: human gut metagenome, 24 h, 2 µM
Remark: another data set of the same source

Compound | Bacterial Biotransformation
COc1ccc(C(CN(C)C)C2(O)CCCCC2)cc1 (stereo not given) [VENLAFAXINE] | Compound NOT metabolized
CCOC(=O)C1=C[C@]2(CC)CCCN3CCc4c(n1c1ccccc41)[C@@H]32 [VINPOCETINE] | Compound metabolized
C[C@@H](c1ncncc1F)[C@](O)(Cn1cncn1)c1ccc(F)cc1F [VORICONAZOLE] | Compound metabolized
CCN(C(C)=O)c1cccc(-c2ccnc3c(C#N)cnn23)c1 [ZALEPLON] | Compound metabolized

Assay: as §1, with “Z-025” for “WLS-010”, “rabbit” for “human”, “ERS12561824” for “ERS12561743”
Conditions: 2 µM

Compound | Bacterial Biotransformation
COc1ccc(C(CN(C)C)C2(O)CCCCC2)cc1 (stereo not given) [VENLAFAXINE] | Compound NOT metabolized
CCOC(=O)C1=C[C@]2(CC)CCCN3CCc4c(n1c1ccccc41)[C@@H]32 [VINPOCETINE] | Compound NOT metabolized
C[C@@H](c1ncncc1F)[C@](O)(Cn1cncn1)c1ccc(F)cc1F [VORICONAZOLE] | Compound NOT metabolized
CCN(C(C)=O)c1cccc(-c2ccnc3c(C#N)cnn23)c1 [ZALEPLON] | Compound metabolized

Assay: as §1, with “WLS-052” for “WLS-010”, “ERS12561747” for “ERS12561743”
Conditions: 2 µM

Compound | Bacterial Biotransformation
COc1ccc(C(CN(C)C)C2(O)CCCCC2)cc1 (stereo not given) [VENLAFAXINE] | Compound NOT metabolized
CCOC(=O)C1=C[C@]2(CC)CCCN3CCc4c(n1c1ccccc41)[C@@H]32 [VINPOCETINE] | Compound metabolized
C[C@@H](c1ncncc1F)[C@](O)(Cn1cncn1)c1ccc(F)cc1F [VORICONAZOLE] | Compound metabolized
CCN(C(C)=O)c1cccc(-c2ccnc3c(C#N)cnn23)c1 [ZALEPLON] | Compound metabolized

Conditions: human gut metagenome, 24 h, 2 µM
Remark: another data set of the same source

Compound | Bacterial Biotransformation
COc1ccc(C(CN(C)C)C2(O)CCCCC2)cc1 (stereo not given) [VENLAFAXINE] | Compound NOT metabolized
CCOC(=O)C1=C[C@]2(CC)CCCN3CCc4c(n1c1ccccc41)[C@@H]32 [VINPOCETINE] | Compound metabolized
C[C@@H](c1ncncc1F)[C@](O)(Cn1cncn1)c1ccc(F)cc1F [VORICONAZOLE] | Compound metabolized
CCN(C(C)=O)c1cccc(-c2ccnc3c(C#N)cnn23)c1 [ZALEPLON] | Compound metabolized

Conditions: human gut metagenome, 24 h, 2 µM
Remark: another data set of the same source

Compound | Bacterial Biotransformation
COc1ccc(C(CN(C)C)C2(O)CCCCC2)cc1 (stereo not given) [VENLAFAXINE] | Compound NOT metabolized
CCOC(=O)C1=C[C@]2(CC)CCCN3CCc4c(n1c1ccccc41)[C@@H]32 [VINPOCETINE] | Compound NOT metabolized
C[C@@H](c1ncncc1F)[C@](O)(Cn1cncn1)c1ccc(F)cc1F [VORICONAZOLE] | Compound metabolized
CCN(C(C)=O)c1cccc(-c2ccnc3c(C#N)cnn23)c1 [ZALEPLON] | Compound NOT metabolized

Assay: as §1, with “Z-022” for “WLS-010”, “mouse” for “human”, “ERS12561821” for “ERS12561743”
Conditions: 2 µM

Compound | Bacterial Biotransformation
COc1ccc(C(CN(C)C)C2(O)CCCCC2)cc1 (stereo not given) [VENLAFAXINE] | Compound NOT metabolized
CCOC(=O)C1=C[C@]2(CC)CCCN3CCc4c(n1c1ccccc41)[C@@H]32 [VINPOCETINE] | Compound metabolized
C[C@@H](c1ncncc1F)[C@](O)(Cn1cncn1)c1ccc(F)cc1F [VORICONAZOLE] | Compound metabolized
CCN(C(C)=O)c1cccc(-c2ccnc3c(C#N)cnn23)c1 [ZALEPLON] | Compound NOT metabolized

Assay: as §1, with “Z-007” for “WLS-010”, “rat” for “human”, “ERS12561807” for “ERS12561743”
Conditions: 2 µM

Compound | Bacterial Biotransformation
COc1ccc(C(CN(C)C)C2(O)CCCCC2)cc1 (stereo not given) [VENLAFAXINE] | Compound NOT metabolized
CCOC(=O)C1=C[C@]2(CC)CCCN3CCc4c(n1c1ccccc41)[C@@H]32 [VINPOCETINE] | Compound NOT metabolized
C[C@@H](c1ncncc1F)[C@](O)(Cn1cncn1)c1ccc(F)cc1F [VORICONAZOLE] | Compound NOT metabolized
CCN(C(C)=O)c1cccc(-c2ccnc3c(C#N)cnn23)c1 [ZALEPLON] | Compound NOT metabolized

Assay: as §1, with “Z-009” for “WLS-010”, “pig” for “human”, “ERS12561809” for “ERS12561743”
Conditions: 2 µM

Compound | Bacterial Biotransformation
COc1ccc(C(CN(C)C)C2(O)CCCCC2)cc1 (stereo not given) [VENLAFAXINE] | Compound NOT metabolized
CCOC(=O)C1=C[C@]2(CC)CCCN3CCc4c(n1c1ccccc41)[C@@H]32 [VINPOCETINE] | Compound metabolized
C[C@@H](c1ncncc1F)[C@](O)(Cn1cncn1)c1ccc(F)cc1F [VORICONAZOLE] | Compound metabolized
CCN(C(C)=O)c1cccc(-c2ccnc3c(C#N)cnn23)c1 [ZALEPLON] | Compound metabolized

Assay: as §1, with “Z-006” for “WLS-010”, “mouse” for “human”, “ERS12561806” for “ERS12561743”
Conditions: 2 µM

Compound | Bacterial Biotransformation
COc1ccc(C(CN(C)C)C2(O)CCCCC2)cc1 (stereo not given) [VENLAFAXINE] | Compound NOT metabolized
CCOC(=O)C1=C[C@]2(CC)CCCN3CCc4c(n1c1ccccc41)[C@@H]32 [VINPOCETINE] | Compound NOT metabolized
C[C@@H](c1ncncc1F)[C@](O)(Cn1cncn1)c1ccc(F)cc1F [VORICONAZOLE] | Compound NOT metabolized
CCN(C(C)=O)c1cccc(-c2ccnc3c(C#N)cnn23)c1 [ZALEPLON] | Compound NOT metabolized

Assay: as §1, with “Z-004” for “WLS-010”, “to” for “to human gut”, “ERS12561804” for “ERS12561743”
Conditions: 2 µM

Compound | Bacterial Biotransformation
COc1ccc(C(CN(C)C)C2(O)CCCCC2)cc1 (stereo not given) [VENLAFAXINE] | Compound NOT metabolized
CCOC(=O)C1=C[C@]2(CC)CCCN3CCc4c(n1c1ccccc41)[C@@H]32 [VINPOCETINE] | Compound NOT metabolized
C[C@@H](c1ncncc1F)[C@](O)(Cn1cncn1)c1ccc(F)cc1F [VORICONAZOLE] | Compound NOT metabolized
CCN(C(C)=O)c1cccc(-c2ccnc3c(C#N)cnn23)c1 [ZALEPLON] | Compound metabolized

Conditions: human gut metagenome, 24 h, 2 µM
Remark: another data set of the same source

Compound | Bacterial Biotransformation
COc1ccc(C(CN(C)C)C2(O)CCCCC2)cc1 (stereo not given) [VENLAFAXINE] | Compound NOT metabolized
CCOC(=O)C1=C[C@]2(CC)CCCN3CCc4c(n1c1ccccc41)[C@@H]32 [VINPOCETINE] | Compound metabolized
C[C@@H](c1ncncc1F)[C@](O)(Cn1cncn1)c1ccc(F)cc1F [VORICONAZOLE] | Compound metabolized
CCN(C(C)=O)c1cccc(-c2ccnc3c(C#N)cnn23)c1 [ZALEPLON] | Compound metabolized

Conditions: human gut metagenome, 24 h, 2 µM
Remark: another data set of the same source

Compound | Bacterial Biotransformation
COc1ccc(C(CN(C)C)C2(O)CCCCC2)cc1 (stereo not given) [VENLAFAXINE] | Compound NOT metabolized
CCOC(=O)C1=C[C@]2(CC)CCCN3CCc4c(n1c1ccccc41)[C@@H]32 [VINPOCETINE] | Compound NOT metabolized
C[C@@H](c1ncncc1F)[C@](O)(Cn1cncn1)c1ccc(F)cc1F [VORICONAZOLE] | Compound metabolized
CCN(C(C)=O)c1cccc(-c2ccnc3c(C#N)cnn23)c1 [ZALEPLON] | Compound metabolized

Conditions: human gut metagenome, 24 h, 2 µM
Remark: another data set of the same source

Compound | Bacterial Biotransformation
COc1ccc(C(CN(C)C)C2(O)CCCCC2)cc1 (stereo not given) [VENLAFAXINE] | Compound NOT metabolized
CCOC(=O)C1=C[C@]2(CC)CCCN3CCc4c(n1c1ccccc41)[C@@H]32 [VINPOCETINE] | Compound metabolized
C[C@@H](c1ncncc1F)[C@](O)(Cn1cncn1)c1ccc(F)cc1F [VORICONAZOLE] | Compound metabolized
CCN(C(C)=O)c1cccc(-c2ccnc3c(C#N)cnn23)c1 [ZALEPLON] | Compound metabolized
